According to paper PMC9569420 (Communications Biology, 2022):
“And” between values parts separate entries of the source, which are not always exact repeats. Equal entries are not always repeated.

Experiments:
AKT2 = target: T1, AKT2 (Homo sapiens, UniProt P31751); test: biochemical
T1 construct: purchased Reaction Biology Corporation

Aurora B = target: T2, Aurora B (Homo sapiens, UniProt Q96GD4); test: HotSpot kinase assay; format: biochemical; details: read-out: % Enzyme Activity (relative to DMSO controls)
T2 construct: purchased Reaction Biology Corporation

BMPR2 = target: T3, BMPR2 (Homo sapiens, UniProt Q13873); test: HotSpot kinase assay; format: biochemical; details: read-out: % Enzyme Activity (relative to DMSO controls)
T3 construct: purchased Reaction Biology Corporation

c-MET = target: T4, c-MET (Homo sapiens, UniProt P08581); test: biochemical; details: read-out: % Enzyme Activity (relative to DMSO controls)
T4 construct: purchased Reaction Biology Corporation

CAMK1b = target: T5, CAMK1b (Homo sapiens, UniProt Q6P2M8); test: HotSpot kinase assay; format: biochemical; details: read-out: % Enzyme Activity (relative to DMSO controls)
T5 construct: purchased Reaction Biology Corporation

CAMK1g = target: T6, CAMK1g (Homo sapiens, UniProt Q96NX5); test: HotSpot kinase assay; format: biochemical; details: read-out: % Enzyme Activity (relative to DMSO controls)
T6 construct: purchased Reaction Biology Corporation

CAMK2a = target: T7, CAMK2a (Homo sapiens, UniProt Q9UQM7); test: HotSpot kinase assay; format: biochemical; details: read-out: % Enzyme Activity (relative to DMSO controls)
T7 construct: purchased Reaction Biology Corporation

CAMKK1 = target: T8, CAMKK1 (Homo sapiens, UniProt Q8N5S9); test: biochemical; details: read-out: % Enzyme Activity (relative to DMSO controls)
T8 construct: purchased Reaction Biology Corporation

CDC7/DBF4 = target: T9, CDC7/DBF4 (Homo sapiens, UniProt O00311); test: HotSpot kinase assay; format: biochemical; details: read-out: % Enzyme Activity (relative to DMSO controls)
T9 construct: purchased Reaction Biology Corporation

CDK3/cyclin E2 = target: T10, CDK3/cyclin E2 (Homo sapiens, UniProt Q00526); test: HotSpot kinase assay; format: biochemical; details: read-out: % Enzyme Activity (relative to DMSO controls)
T10 construct: purchased Reaction Biology Corporation

CK1g1 = target: T11, CK1g1 (Homo sapiens, UniProt Q9HCP0); test: HotSpot kinase assay; format: biochemical; details: read-out: % Enzyme Activity (relative to DMSO controls)
T11 construct: purchased Reaction Biology Corporation

CLK1 = target: T12, CLK1 (Homo sapiens, UniProt P49759); test: HotSpot kinase assay; format: biochemical; details: read-out: % Enzyme Activity (relative to DMSO controls)
T12 construct: purchased Reaction Biology Corporation

CLK4 = target: T13, CLK4 (Homo sapiens, UniProt Q9HAZ1); test: HotSpot kinase assay; format: biochemical; details: read-out: % Enzyme Activity (relative to DMSO controls)
T13 construct: purchased Reaction Biology Corporation

EPHA1 = target: T14, EPHA1 (Homo sapiens, UniProt P21709); test: HotSpot kinase assay; format: biochemical; details: read-out: % Enzyme Activity (relative to DMSO controls)
T14 construct: purchased Reaction Biology Corporation

EPHA8 = target: T15, EPHA8 (Homo sapiens, UniProt P29322); test: HotSpot kinase assay; format: biochemical; details: read-out: % Enzyme Activity (relative to DMSO controls)
T15 construct: purchased Reaction Biology Corporation

FGR = target: T16, FGR (Homo sapiens, UniProt P09769); test: HotSpot kinase assay; format: biochemical; details: read-out: % Enzyme Activity (relative to DMSO controls)
T16 construct: purchased Reaction Biology Corporation

GLK/MAP4K3 = target: T17, GLK/MAP4K3 (Homo sapiens, UniProt Q8IVH8); test: HotSpot kinase assay; format: biochemical; details: read-out: % Enzyme Activity (relative to DMSO controls)
T17 construct: purchased Reaction Biology Corporation

GRK4 = target: T18, GRK4 (Homo sapiens, UniProt P32298); test: HotSpot kinase assay; format: biochemical; details: read-out: % Enzyme Activity (relative to DMSO controls)
T18 construct: purchased Reaction Biology Corporation

MARK3 = target: T19, MARK3 (Homo sapiens, UniProt P27448); test: HotSpot kinase assay; format: biochemical; details: read-out: % Enzyme Activity (relative to DMSO controls)
T19 construct: purchased Reaction Biology Corporation

MEKK3 = target: T20, MEKK3 (Homo sapiens, UniProt Q99759); test: HotSpot kinase assay; format: biochemical; details: read-out: % Enzyme Activity (relative to DMSO controls)
T20 construct: purchased Reaction Biology Corporation

MLK2/MAP3K10 = target: T21, MLK2/MAP3K10 (Homo sapiens, UniProt Q02779); test: HotSpot kinase assay; format: biochemical; details: read-out: % Enzyme Activity (relative to DMSO controls)
T21 construct: purchased Reaction Biology Corporation

MLK4 = target: T22, MLK4 (Homo sapiens, UniProt Q5TCX8); test: HotSpot kinase assay; format: biochemical; details: read-out: % Enzyme Activity (relative to DMSO controls)
T22 construct: purchased Reaction Biology Corporation

MRCKa/CDC42BPA = target: T23, MRCKa/CDC42BPA (Homo sapiens, UniProt Q5VT25); test: HotSpot kinase assay; format: biochemical; details: read-out: % Enzyme Activity (relative to DMSO controls)
T23 construct: purchased Reaction Biology Corporation

MUSK = target: T24, MUSK (Homo sapiens, UniProt O15146); test: HotSpot kinase assay; format: biochemical; details: read-out: % Enzyme Activity (relative to DMSO controls)
T24 construct: purchased Reaction Biology Corporation

NEK5 = target: T25, NEK5 (Homo sapiens, UniProt Q6P3R8); test: HotSpot kinase assay; format: biochemical; details: read-out: % Enzyme Activity (relative to DMSO controls)
T25 construct: purchased Reaction Biology Corporation

PAK6 = target: T26, PAK6 (Homo sapiens, UniProt Q9NQU5); test: HotSpot kinase assay; format: biochemical; details: read-out: % Enzyme Activity (relative to DMSO controls)
T26 construct: purchased Reaction Biology Corporation

PKCd = target: T27, PKCd (Homo sapiens, UniProt Q05655); test: biochemical
T27 construct: purchased Reaction Biology Corporation

PKCepsilon = target: T28, PKCepsilon (Homo sapiens, UniProt Q02156); test: HotSpot kinase assay; format: biochemical; details: read-out: % Enzyme Activity (relative to DMSO controls)
T28 construct: purchased Reaction Biology Corporation

PKCIOTA = target: T29, PKCIOTA (Homo sapiens, UniProt P41743); test: HotSpot kinase assay; format: biochemical; details: read-out: % Enzyme Activity (relative to DMSO controls)
T29 construct: purchased Reaction Biology Corporation

RET = target: T30, RET (Homo sapiens, UniProt P07949); test: HotSpot kinase assay; format: biochemical; details: read-out: % Enzyme Activity (relative to DMSO controls)
T30 construct: purchased Reaction Biology Corporation

RIPK2 = target: T31, RIPK2 (Homo sapiens, UniProt O43353); test: HotSpot kinase assay; format: biochemical; details: read-out: % Enzyme Activity (relative to DMSO controls)
T31 construct: purchased Reaction Biology Corporation

RSK4 = target: T32, RSK4 (Homo sapiens, UniProt Q9UK32); test: HotSpot kinase assay; format: biochemical; details: read-out: % Enzyme Activity (relative to DMSO controls)
T32 construct: purchased Reaction Biology Corporation

SLK/STK2 = target: T33, SLK/STK2 (Homo sapiens, UniProt Q9H2G2); test: HotSpot kinase assay; format: biochemical; details: read-out: % Enzyme Activity (relative to DMSO controls)
T33 construct: purchased Reaction Biology Corporation

SNRK = target: T34, SNRK (Homo sapiens, UniProt Q9NRH2); test: HotSpot kinase assay; format: biochemical; details: read-out: % Enzyme Activity (relative to DMSO controls)
T34 construct: purchased Reaction Biology Corporation

STK25/YSK1 = target: T35, STK25/YSK1 (Homo sapiens, UniProt O00506); test: HotSpot kinase assay; format: biochemical; details: read-out: % Enzyme Activity (relative to DMSO controls)
T35 construct: purchased Reaction Biology Corporation

TLK2 = target: T36, TLK2 (Homo sapiens, UniProt Q86UE8); test: HotSpot kinase assay; format: biochemical; details: read-out: % Enzyme Activity (relative to DMSO controls)
T36 construct: purchased Reaction Biology Corporation

TYRO3/SKY = target: T37, TYRO3/SKY (Homo sapiens, UniProt Q06418); test: HotSpot kinase assay; format: biochemical; details: read-out: % Enzyme Activity (relative to DMSO controls)
T37 construct: purchased Reaction Biology Corporation

[1] = viability of confluent cells; format: cell-based, human; details: human, HaCat cells at 90–100% confluence, 120 h, replicates (Fig 1c source data), read-out: viability, odu as a percentage of the DMSO control
HaCat cells = test: viability of confluent cells; format: cell-based, human; details: 10 μM; for viability, odu as a percentage of the DMSO control: replicates (Fig 1c source data)
HSV-2(G) = test: HSV plaque assay, HaCat cells; format: cell-based; details: Human alphaherpesvirus 2, HaCaT, read-out: inhibition of HSV-2 infection
Method: After 48 h incubation, plaques were counted by immunoassay using an anti–human IgG antibody peroxidase conjugate (PA1-86064, Thermo Fisher)[33]. […] Western blots were prepared and probed for gD as a marker of bound virus and β-actin as a control.

[2] = Supplementary Table 1, read-out: IC50 (Molar concentration)
[3] = read-out: % Enzyme Activity (relative to DMSO controls), 10µM

T1 sequence (P31751 whole entry): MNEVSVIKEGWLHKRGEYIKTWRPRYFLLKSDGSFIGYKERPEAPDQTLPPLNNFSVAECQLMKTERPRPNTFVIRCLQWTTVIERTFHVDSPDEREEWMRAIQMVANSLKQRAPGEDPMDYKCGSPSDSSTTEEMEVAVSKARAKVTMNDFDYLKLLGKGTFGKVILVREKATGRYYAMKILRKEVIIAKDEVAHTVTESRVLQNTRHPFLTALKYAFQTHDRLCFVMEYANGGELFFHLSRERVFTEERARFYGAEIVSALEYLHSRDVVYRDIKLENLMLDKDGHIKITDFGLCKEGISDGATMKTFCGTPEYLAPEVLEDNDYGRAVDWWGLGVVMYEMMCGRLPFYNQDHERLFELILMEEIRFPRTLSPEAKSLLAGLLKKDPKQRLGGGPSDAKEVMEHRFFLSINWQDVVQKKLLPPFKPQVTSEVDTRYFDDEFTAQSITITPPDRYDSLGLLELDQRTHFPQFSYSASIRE
T27 sequence (Q05655 whole entry): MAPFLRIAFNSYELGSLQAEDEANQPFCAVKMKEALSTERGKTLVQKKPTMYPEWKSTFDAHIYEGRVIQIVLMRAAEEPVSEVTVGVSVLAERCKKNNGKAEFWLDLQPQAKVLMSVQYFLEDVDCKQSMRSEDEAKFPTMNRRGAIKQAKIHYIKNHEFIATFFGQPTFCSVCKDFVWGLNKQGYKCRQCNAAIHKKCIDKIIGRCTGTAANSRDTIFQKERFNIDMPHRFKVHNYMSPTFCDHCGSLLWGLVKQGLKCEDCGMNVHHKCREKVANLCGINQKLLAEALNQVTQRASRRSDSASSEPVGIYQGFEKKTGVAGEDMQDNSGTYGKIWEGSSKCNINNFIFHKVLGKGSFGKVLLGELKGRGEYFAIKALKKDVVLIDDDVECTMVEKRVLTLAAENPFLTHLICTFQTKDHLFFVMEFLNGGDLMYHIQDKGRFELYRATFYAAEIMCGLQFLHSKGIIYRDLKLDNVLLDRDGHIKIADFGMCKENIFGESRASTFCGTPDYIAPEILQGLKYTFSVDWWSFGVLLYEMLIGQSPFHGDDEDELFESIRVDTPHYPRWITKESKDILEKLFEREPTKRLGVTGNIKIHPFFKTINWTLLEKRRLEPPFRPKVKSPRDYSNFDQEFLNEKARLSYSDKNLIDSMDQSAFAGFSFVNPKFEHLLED
T14 sequence (P21709 26-976): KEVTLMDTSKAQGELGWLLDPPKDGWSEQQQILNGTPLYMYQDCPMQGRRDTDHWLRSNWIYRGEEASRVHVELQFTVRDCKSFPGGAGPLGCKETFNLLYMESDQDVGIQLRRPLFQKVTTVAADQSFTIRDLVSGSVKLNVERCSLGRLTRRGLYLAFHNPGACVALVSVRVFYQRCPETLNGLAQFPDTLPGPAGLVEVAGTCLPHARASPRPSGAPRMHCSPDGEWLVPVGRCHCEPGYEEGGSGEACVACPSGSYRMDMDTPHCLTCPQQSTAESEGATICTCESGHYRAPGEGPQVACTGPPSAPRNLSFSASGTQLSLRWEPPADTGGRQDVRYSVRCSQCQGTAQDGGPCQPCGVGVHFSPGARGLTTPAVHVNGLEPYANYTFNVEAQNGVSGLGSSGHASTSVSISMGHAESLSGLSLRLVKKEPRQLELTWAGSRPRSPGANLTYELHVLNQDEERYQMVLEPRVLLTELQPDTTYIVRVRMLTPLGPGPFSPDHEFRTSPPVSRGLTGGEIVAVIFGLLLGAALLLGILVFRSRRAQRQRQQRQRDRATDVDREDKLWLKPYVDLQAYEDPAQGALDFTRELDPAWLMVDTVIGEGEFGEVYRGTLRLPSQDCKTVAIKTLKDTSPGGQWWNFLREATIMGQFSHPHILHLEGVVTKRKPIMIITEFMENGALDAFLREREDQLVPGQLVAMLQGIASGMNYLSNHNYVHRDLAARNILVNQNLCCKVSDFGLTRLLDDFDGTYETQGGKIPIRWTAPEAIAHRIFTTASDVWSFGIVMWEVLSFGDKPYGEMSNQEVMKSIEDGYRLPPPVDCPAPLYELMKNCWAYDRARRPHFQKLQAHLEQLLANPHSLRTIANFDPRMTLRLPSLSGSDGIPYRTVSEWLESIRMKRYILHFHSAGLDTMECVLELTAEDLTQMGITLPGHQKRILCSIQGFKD
T31 sequence (O43353 whole entry): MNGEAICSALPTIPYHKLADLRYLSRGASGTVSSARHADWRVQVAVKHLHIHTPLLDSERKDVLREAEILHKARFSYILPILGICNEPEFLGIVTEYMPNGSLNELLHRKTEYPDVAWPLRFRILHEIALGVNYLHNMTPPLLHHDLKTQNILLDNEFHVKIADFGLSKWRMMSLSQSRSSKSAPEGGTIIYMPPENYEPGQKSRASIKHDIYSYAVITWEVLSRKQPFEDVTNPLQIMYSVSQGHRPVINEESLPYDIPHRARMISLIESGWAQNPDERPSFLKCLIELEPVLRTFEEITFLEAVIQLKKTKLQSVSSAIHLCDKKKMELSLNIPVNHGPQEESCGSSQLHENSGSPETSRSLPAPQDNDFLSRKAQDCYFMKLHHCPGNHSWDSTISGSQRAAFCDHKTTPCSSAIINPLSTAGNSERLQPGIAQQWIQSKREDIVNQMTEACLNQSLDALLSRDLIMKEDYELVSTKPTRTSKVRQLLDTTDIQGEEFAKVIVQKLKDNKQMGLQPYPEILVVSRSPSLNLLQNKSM
T7 sequence (Q9UQM7 whole entry): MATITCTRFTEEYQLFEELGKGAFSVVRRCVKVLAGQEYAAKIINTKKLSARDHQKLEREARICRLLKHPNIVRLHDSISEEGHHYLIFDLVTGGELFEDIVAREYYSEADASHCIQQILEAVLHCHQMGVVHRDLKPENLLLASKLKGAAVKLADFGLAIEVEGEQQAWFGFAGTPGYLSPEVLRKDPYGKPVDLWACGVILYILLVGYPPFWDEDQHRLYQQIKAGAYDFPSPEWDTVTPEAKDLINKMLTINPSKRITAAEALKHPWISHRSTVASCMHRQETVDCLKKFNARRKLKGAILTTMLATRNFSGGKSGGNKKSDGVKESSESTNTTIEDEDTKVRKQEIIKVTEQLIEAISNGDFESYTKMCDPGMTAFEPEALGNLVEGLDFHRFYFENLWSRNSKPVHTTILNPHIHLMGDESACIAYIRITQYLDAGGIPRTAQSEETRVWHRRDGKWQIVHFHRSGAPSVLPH
T8 sequence (Q8N5S9 whole entry): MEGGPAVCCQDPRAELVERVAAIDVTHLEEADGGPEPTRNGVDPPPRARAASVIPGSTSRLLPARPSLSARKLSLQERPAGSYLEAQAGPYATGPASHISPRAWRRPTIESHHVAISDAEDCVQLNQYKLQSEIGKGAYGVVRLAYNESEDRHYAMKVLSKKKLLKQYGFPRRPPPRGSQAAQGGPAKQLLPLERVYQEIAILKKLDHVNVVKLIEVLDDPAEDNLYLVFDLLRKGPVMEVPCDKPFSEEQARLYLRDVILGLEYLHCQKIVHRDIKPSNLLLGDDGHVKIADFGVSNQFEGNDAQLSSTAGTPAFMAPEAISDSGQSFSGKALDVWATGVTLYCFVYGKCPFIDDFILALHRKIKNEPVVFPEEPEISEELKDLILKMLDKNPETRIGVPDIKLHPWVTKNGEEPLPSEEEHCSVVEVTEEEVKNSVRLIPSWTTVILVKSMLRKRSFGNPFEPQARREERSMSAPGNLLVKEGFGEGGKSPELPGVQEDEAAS
T35 sequence (O00506 whole entry): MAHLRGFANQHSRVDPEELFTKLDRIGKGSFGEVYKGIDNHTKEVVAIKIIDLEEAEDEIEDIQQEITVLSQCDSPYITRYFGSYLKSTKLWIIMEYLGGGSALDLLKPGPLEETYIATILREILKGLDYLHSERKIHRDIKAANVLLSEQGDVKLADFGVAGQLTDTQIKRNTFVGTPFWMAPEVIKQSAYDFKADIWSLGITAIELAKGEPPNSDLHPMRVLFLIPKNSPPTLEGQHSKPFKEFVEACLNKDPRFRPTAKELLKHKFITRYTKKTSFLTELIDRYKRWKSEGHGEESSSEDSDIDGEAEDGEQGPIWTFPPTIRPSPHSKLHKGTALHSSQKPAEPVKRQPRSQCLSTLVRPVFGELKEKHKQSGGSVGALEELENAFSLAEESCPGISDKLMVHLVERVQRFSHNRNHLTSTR
T18 sequence (P32298 whole entry): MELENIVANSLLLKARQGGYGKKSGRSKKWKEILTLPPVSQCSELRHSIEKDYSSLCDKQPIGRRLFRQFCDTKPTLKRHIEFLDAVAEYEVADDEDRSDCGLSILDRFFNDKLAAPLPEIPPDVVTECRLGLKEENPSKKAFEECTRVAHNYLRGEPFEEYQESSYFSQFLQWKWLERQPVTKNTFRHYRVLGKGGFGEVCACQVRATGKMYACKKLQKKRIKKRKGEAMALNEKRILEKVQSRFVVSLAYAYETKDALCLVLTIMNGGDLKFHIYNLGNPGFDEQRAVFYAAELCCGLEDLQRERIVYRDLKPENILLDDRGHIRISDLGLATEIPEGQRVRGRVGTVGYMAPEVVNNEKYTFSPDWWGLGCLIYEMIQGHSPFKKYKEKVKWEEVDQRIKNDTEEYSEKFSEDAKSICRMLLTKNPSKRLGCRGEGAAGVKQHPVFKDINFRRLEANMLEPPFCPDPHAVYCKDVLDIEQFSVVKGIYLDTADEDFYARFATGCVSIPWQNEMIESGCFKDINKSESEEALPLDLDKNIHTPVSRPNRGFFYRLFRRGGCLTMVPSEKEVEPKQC
T2 sequence (Q96GD4 whole entry): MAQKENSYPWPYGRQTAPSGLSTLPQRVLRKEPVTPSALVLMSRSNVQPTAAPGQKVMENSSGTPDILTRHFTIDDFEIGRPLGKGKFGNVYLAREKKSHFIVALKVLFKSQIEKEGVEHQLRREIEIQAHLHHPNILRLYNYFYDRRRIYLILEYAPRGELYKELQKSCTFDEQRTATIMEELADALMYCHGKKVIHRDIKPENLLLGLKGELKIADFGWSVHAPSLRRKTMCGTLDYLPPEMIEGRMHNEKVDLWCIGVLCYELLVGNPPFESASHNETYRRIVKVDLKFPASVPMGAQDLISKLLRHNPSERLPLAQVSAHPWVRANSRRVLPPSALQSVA

## CO[C@@H]1[C@H](N(C)C(=O)CCC(=O)NCc2cn(CCCS(=O)(=O)O)nn2)C[C@H]2O[C@]1(C)n1c3ccccc3c3c4c(c5c6ccccc6n2c5c31)C(=O)NC4 [CIMSS]
AKT2; [2]
  IC50: 1000 nM
AKT2; [3]
  remaining activity at 10 µM: 19.1%
AKT2; read-out: inhibition of Akt2
  inhibition at 10 µM: > 75%
Aurora B
  remaining activity at 10 µM: 2.85%
BMPR2
  remaining activity at 10 µM: 50.4%
c-MET
  remaining activity at 10 µM: 12.4%
CAMK1b
  remaining activity at 10 µM: 59.5%
CAMK1g
  remaining activity at 10 µM: 8.97%
CAMK2a
  remaining activity at 10 µM: 1.36%
CAMKK1
  remaining activity at 10 µM: 1%
CDC7/DBF4
  remaining activity at 10 µM: 3.98%
CDK3/cyclin E2
  remaining activity at 10 µM: 22.3%
CK1g1
  remaining activity at 10 µM: 95.9%
CLK1
  remaining activity at 10 µM: 4.05%
CLK4
  remaining activity at 10 µM: 10.4%
EPHA1
  remaining activity at 10 µM: 31.5%
EPHA8
  remaining activity at 10 µM: 70.1%
FGR
  remaining activity at 10 µM: 1.68%
GLK/MAP4K3
  remaining activity at 10 µM: 0.96%
GRK4
  remaining activity at 10 µM: 19.8%
MARK3
  remaining activity at 10 µM: 1.8%
MEKK3
  remaining activity at 10 µM: 6.32%
MLK2/MAP3K10
  remaining activity at 10 µM: 1.86%
MLK4
  remaining activity at 10 µM: 0.87%
MRCKa/CDC42BPA
  remaining activity at 10 µM: 71.3%
MUSK
  remaining activity at 10 µM: 3.33%
NEK5
  remaining activity at 10 µM: 6.56%
PAK6
  remaining activity at 10 µM: 9.79%
PKCd; [2]
  IC50: 3.64 nM
PKCd; [3]
  remaining activity at 10 µM: 8.64%
PKCepsilon
  remaining activity at 10 µM: 1.11%
PKCIOTA
  remaining activity at 10 µM: 31.5%
RET
  remaining activity at 10 µM: 2.1%
RIPK2
  remaining activity at 10 µM: 41.7%
RSK4
  remaining activity at 10 µM: 6.64%
SLK/STK2
  remaining activity at 10 µM: 6.42%
SNRK
  remaining activity at 10 µM: 72.5%
STK25/YSK1
  remaining activity at 10 µM: 4.17%
TLK2
  remaining activity at 10 µM: 67%
TYRO3/SKY
  remaining activity at 10 µM: 23.6%
[1]
  viability at 120 h, 10 µM: 98%
HaCat cells; 24 h
  viability, odu as a percentage of the DMSO control: 123% and 93.2% and 107%
HaCat cells; 120 h
  viability, odu as a percentage of the DMSO control: 88.4% and 84%
HaCat cells; up to 120 h
  cytotoxicity: little or no cytotoxicity
HSV-2(G)
  inhibition at 10 µM: > 75%
